Data reported in patent US10118947B2, “Modulation of structured polypeptide specificity” (BICYCLE THERAPEUTICS LIMITED, priority 2013, dated 2018).
Where two headings read alike, the source gives them in different places. Numbered stars: 1 amine (or outer) side, 2 acyl side, 3 side chain; on linkers, the order of the positions; unused ones are H or OH. Bridge positions count the residues as written; N and C are the ends. Square brackets hold non-standard residues; d marks the D form. Peptide text beside a SMILES is read from it. Phe(4-guanidino) = N=C(N)Nc1ccc(C[C@H](N)C(=O)O)cc1; TBMB = c1c(C[*:1])cc(C[*:3])cc1C[*:2]; NMeR = CN[C@@H](CCCNC(=N)N)C(=O)O; hArg = N=C(N)NCCCC[C@H](N)C(=O)O; Aze = O=C(O)[C@@H]1CCN1

Key:
[1] = Table 1; Method #1; cited from earlier work
[2] = Plasma stability profiling Method #1 (MALDI-TOF, 35% plasma), rat plasma; assay type: in vitro ADME; settings: for Observable in rat plasma, for days: comparative stabilities estimated according to method #1; for observability window / rat plasma stability profile: method #1
Outline: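 Qualitative test: 200 µM peptide incubated at 37 °C in 35% rat or human citrated plasma supplemented with PBS, sampled at 0, 3, 24 h then daily up to 10 days. Parent mass tracked by MALDI-TOF; value is time until parent peptide no longer detectable.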

rat plasma Kallikrein = target: T1, rat plasma Kallikrein (Rattus norvegicus, UniProt P14272)
T1 construct: polyhistidine tag (N, cleaved yes); proTEV cleavage site (pro-peptide linker) (N, cleaved yes); made in house; host or cells: HEK-293 (suspension-adapted)

[3] = Quantitative plasma stability Method #3 (LC-MS, 95% plasma), rat plasma; assay type: in vitro ADME
Protocol: (§1) To obtain plasma stability quantitatively, peptide stock solutions (1 mM in DMSO) were shipped to Biofocus, UK, who performed the analysis. Peptides were diluted to 100 uM with water, and diluted 1:20 in plasma (5 uM final concentration, with the plasma at 95%), sampled as appropriate, precipitated as above, and quantified using a Waters Xevo TQ-MS.

[4] = Table 1; Method #3; cited from earlier work
human plasma Kallikrein [5] = target: T2, human plasma Kallikrein (Homo sapiens, UniProt P03952); assay: Functional enzyme inhibition assay with fluorogenic substrate Z-PheArg-AMC, human plasma Kallikrein; assay type: biochemical
T2 construct: purchased Stratech, UK
Outline: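 Rates of AMC release (excitation 360 nm, emission 460 nm) from 100 μM final Z-PheArg-AMC, 4% DMSO, were taken over the linear phase, typically 5 to 45 minutes. IC50 from four-parameter non-linear regression; Ki also derived.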

[6] = Quantitative plasma stability Method #3 (LC-MS, 95% plasma), human plasma; assay type: in vitro ADME; settings: human plasma (95%), Table 2, ex vivo human plasma, read-out: Human Plasma Stability (t½ in hrs) (converted)
Protocol: as §1

human plasma Kallikrein [7] = target: T2, human plasma Kallikrein; assay: Phage binding assay of individual clones, homogeneous plate-based binding to biotinylated human plasma Kallikrein; settings: for BINDING ASSAY SIGNAL: Table 19, fixed WPAR motif library, selection output clones
Protocol: Library transformant colonies were picked at random and grown as individual cultures in 2TY broth containing selective antibiotic. The picked colonies were DNA-sequenced using a QIAgen PyroMark Q96 DNA sequencer to reveal the amino-acid substitution present in each clone. Where isolated, a clone of each unique substitution was assayed for human plasma Kallikrein binding as follows. The phage-containing supernatant was harvested from the culture and phage were cyclised with tris bromomethyl benzene(TBMB) based on the methods of Heinis et al (Nature Chemical Biology vol. 5 pp 502-507 (2009)). The purified phage from this process were assayed for binding to biotinylated human plasma Kallikrein using a homogeneous plate-based binding assay; assay read-out measured on a BMG Labtech Pherastar FS plate reader. The quantitative binding data from triplicate assay samples was averaged (mean) and expressed as signal:background (where background was a sample assayed with no target material). The signal:background was expressed as a % of the parallel parent sample. Error bars denote standard deviation of the mean. Assays shown are representative of at least 2 independent experiments. The assay data was correlated with the peptide sequences. Substitutions marked in grey were not tested (a clone was not isolated from the random library sampling). A sample of a non-binding (arbitrary) bicycle was assayed in parallel to illustrate the assay baseline.
Library transformant colonies, or selection output colonies, were picked and grown as individual cultures in 2TY broth containing selective antibiotic. The picked colonies were DNA-sequenced using a QIAgen PyroMark Q96 DNA sequencer to reveal the amino-acid substitution present in each clone, and were assayed for human plasma Kallikrein binding as follows. The phage-containing supernatant was harvested from the culture and phage were cyclised with tris bromomethyl benzene (TBMB) based on the methods of Heinis et al (Nature Chemical Biology vol. 5 pp 502-507 (2009)). The purified phage from this process were assayed for binding to biotinylated human plasma Kallikrein using a homogeneous plate-based binding assay; assay read-out measured on a BMG Labtech Pherastar FS plate reader. The quantitative binding data from duplicate assay samples was averaged (mean) and expressed as signal:background. Assay data shown is representative of at least 2 independent experiments. The assay data was correlated with the peptide sequences.

human plasma Kallikrein [8] = target: T2, human plasma Kallikrein; assay: Phage selections against human plasma Kallikrein (abundance in selection output); assay type: binding; settings: Table 17; relative abundance in the total selection outputs
Protocol: Glycerol stocks of phage libraries were diluted to OD600=0.1 in 500 ml 2YT/chloramphenicol (30 μg/ml) cultures and phage were produced at 30° C. over night (15-16 hrs). Phage were purified and chemically modified as described in Heinis, et al., Nat Chem Biol 2009, 5 (7), 502-7 Biotinylated hPK (3 μg) (IHPKA, from human plasma, Innovative Research, Novi, Mich., USA) was incubated with 50 μl pre-washed magnetic streptavidin beads (Dynal, M-280 from Invitrogen, Paisley, UK) for 10 minutes at RT. Beads were washed 3 times prior to blocking with 0.5 ml washing buffer (10 mM Tris-Cl, pH 7.4, 150 mM NaCl, 10 mM MgCl2, 1 mM CaCl2) containing 1% BSA and 0.1% Tween 20 for 30 minutes at RT with rotation. […] Blocked beads were then mixed with the blocked chemically modified phage and incubated for 30 minutes on a rotating wheel at
RT. Beads were washed 8 times with washing buffer containing 0.1% Tween 20 and twice with washing buffer before incubation with 100 μl of 50 mM glycine, pH 2.2 for 5 minutes. Eluted phage were transferred to 50 μl of 1 M Tris-Cl, pH 8 for neutralization, incubated with 30 ml TG1 cells at OD600=0.4 for 90 minutes at 37° C. and the cells were plated on large 2YT/chloramphenicol plates. One or two additional rounds of panning were performed using the same procedures. In the second round of selection, neutravidin-coated magnetic beads were used to prevent the enrichment of streptavidin-specific peptides. The neutravidin beads were prepared by reacting 0.8 mg neutravidin (Pierce, Rockford, Ill., USA) with 0.5 ml tosyl-activated magnetic beads (Dynal, M-280 from Invitrogen, Paisley, UK) according to the supplier's instructions.
The WPAR (SEQ ID No. 19) motif identified from Example 1 was analysed in the context of the 06-34-03 peptide, in order to identify alternatives or improvements to the WPAR motif. A library was constructed where positions 1, 6, 7, 8, 9 &10 of 06-34-03 were fixed and positions 2, 3, 4 & 5 were randomised (see ‘Randomisation of peptide domains—Library construction’ in Methods above). Selections against human plasma Kallikrein were performed at a variety of stringencies (see Phage selections' in Methods above). All output sequences were identified and analysed for target binding (see ‘Randomisation of peptide domains—Assay of binding of individual clones’ in Methods above). Table 17 lists each unique sequence, its relative abundance in the selection output (frequency), and a rank number according to target binding strength.

[9] = Table 1; read-out: Ki (nM) (rat kallikrein); cited from earlier work
[10] = rat, plasma, method #3, read-out: half-life in rat plasma (t1/2) (converted)

T1 sequence (P14272 391-638 limits assumed): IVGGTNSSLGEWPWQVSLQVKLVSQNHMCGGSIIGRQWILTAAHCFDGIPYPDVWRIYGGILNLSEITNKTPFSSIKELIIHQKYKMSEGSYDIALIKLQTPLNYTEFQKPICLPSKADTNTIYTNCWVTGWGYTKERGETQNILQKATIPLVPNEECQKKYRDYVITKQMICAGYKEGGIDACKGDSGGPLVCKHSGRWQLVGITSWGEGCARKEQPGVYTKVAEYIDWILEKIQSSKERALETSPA
T2 sequence (P03952 20-638): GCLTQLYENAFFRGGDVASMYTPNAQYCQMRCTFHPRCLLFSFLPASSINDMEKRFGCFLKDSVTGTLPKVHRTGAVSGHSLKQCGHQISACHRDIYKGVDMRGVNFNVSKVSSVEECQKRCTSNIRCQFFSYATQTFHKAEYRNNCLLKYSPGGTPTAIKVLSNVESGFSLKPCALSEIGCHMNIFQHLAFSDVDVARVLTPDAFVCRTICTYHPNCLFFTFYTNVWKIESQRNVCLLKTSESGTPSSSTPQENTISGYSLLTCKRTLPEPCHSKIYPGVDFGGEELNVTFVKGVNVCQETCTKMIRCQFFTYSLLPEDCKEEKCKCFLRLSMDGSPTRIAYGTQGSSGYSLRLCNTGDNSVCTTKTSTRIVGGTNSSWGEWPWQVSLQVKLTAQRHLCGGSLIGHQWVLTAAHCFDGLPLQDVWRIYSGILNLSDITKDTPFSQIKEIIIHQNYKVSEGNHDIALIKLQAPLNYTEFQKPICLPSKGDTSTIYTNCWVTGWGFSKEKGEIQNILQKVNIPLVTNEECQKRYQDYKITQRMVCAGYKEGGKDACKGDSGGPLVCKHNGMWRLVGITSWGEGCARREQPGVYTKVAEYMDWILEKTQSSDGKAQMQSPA

Compound	BINDING ASSAY SIGNAL (human plasma Kallikrein [7])	Observable in rat plasma, for days [1]	Ki (rat plasma Kallikrein; [9])	t1/2 (hrs) in rat plasma [4]	also measured
CC(=O)N[C@H]1CSCc2cc3cc(c2)CSC[C@H](NC(=O)[C@H](Cc2ccc(NC(=N)N)cc2)NC(=O)[C@H](C)NC(=O)[C@@H]2CCN2C(=O)[C@H](Cc2c[nH]c4ccccc24)NC(=O)[C@H](CO)NC1=O)C(=O)N[C@@H](CC(C)C)C(=O)N[C@@H](Cc1c[nH]cn1)C(=O)N[C@@H](CCC(N)=O)C(=O)N[C@@H](CC(=O)O)C(=O)N[C@@H](CC(C)C)C(=O)N[C@H](C(N)=O)CSC3 [Ac-(06-34-18) Aze3 4GuanPhe5] (Ac-CSW[Aze]A[Phe(4-guanidino)]CLHQDLC-NH2; linker 1-7-13 via TBMB)	–	>10 days	–	–	Observable in rat plasma, for days ([2]; Table 15): >10 days
CC(=O)N[C@H]1CSCc2cc3cc(c2)CSC[C@H](NC(=O)[C@H](CCCCNC(=N)N)NC(=O)[C@H](C)NC(=O)[C@@H]2CCN2C(=O)[C@H](Cc2c[nH]c4ccccc24)NC(=O)[C@H](CO)NC1=O)C(=O)N[C@@H](CC(C)C)C(=O)N[C@@H](Cc1c[nH]cn1)C(=O)N[C@@H](CCC(N)=O)C(=O)N[C@@H](CC(=O)O)C(=O)N[C@@H](CC(C)C)C(=O)N[C@H](C(N)=O)CSC3 [Ac-(06-34-18) Aze3 HomoArg5] (Ac-CSW[Aze]A[hArg]CLHQDLC-NH2; linker 1-7-13 via TBMB)	–	>10 days	14.8 nM	–	Observable in rat plasma, for days ([2]; Table 15): >10 days
CC(=O)N[C@H]1CSCc2cc3cc(c2)CSC[C@H](NC(=O)[C@H](CCCNC(=N)N)N(C)C(=O)[C@H](C)NC(=O)[C@@H]2CCN2C(=O)[C@H](Cc2c[nH]c4ccccc24)NC(=O)[C@H](CO)NC1=O)C(=O)N[C@@H](CC(C)C)C(=O)N[C@@H](Cc1c[nH]cn1)C(=O)N[C@@H](CCC(N)=O)C(=O)N[C@@H](CC(=O)O)C(=O)N[C@@H](CC(C)C)C(=O)N[C@H](C(N)=O)CSC3 [Ac-(06-34-18) Aze3 NMeArg5] (Ac-CSW[Aze]A[NMeR]CLHQDLC-NH2; linker 1-7-13 via TBMB)	–	>10 days	70.2 nM	–	Observable in rat plasma, for days ([2]; Table 15): >10 days
CC(=O)N[C@H]1CSCc2cc3cc(c2)CSC[C@H](NC(=O)[C@H](CCCCNC(=N)N)NC(=O)[C@H](C)NC(=O)[C@@H]2CCCN2C(=O)[C@H](Cc2c[nH]c4ccccc24)NC(=O)[C@H](CO)NC1=O)C(=O)N[C@@H](CC(C)C)C(=O)N[C@@H](Cc1c[nH]cn1)C(=O)N[C@@H](CCC(N)=O)C(=O)N[C@@H](CC(=O)O)C(=O)N[C@@H](CC(C)C)C(=O)N[C@H](C(N)=O)CSC3 [Ac-(06-34-18) HomoArg5]	–	–	101 nM	10.7 h	half-life at 5 uM ([3]; rat, plasma, Table 15, method #3, read-out: t1/2 (hrs) in rat plasma (converted)): 10.7 h
CC(=O)N[C@H]1CSCc2cc3cc(c2)CSC[C@H](NC(=O)[C@H](CCCNC(=N)N)N(C)C(=O)[C@H](C)NC(=O)[C@@H]2CCCN2C(=O)[C@H](Cc2c[nH]c4ccccc24)NC(=O)[C@H](CO)NC1=O)C(=O)N[C@@H](CC(C)C)C(=O)N[C@@H](Cc1c[nH]cn1)C(=O)N[C@@H](CCC(N)=O)C(=O)N[C@@H](CC(=O)O)C(=O)N[C@@H](CC(C)C)C(=O)N[C@H](C(N)=O)CSC3 [Ac-(06-34-18) NMeArg5]	–	–	120 nM	>20 h	reduction in potency/affinity compared to wildtype (human plasma Kallikrein [5]): 20 fold; observability window / rat plasma stability profile [2]: exceeds the assay time; t1/2 (hrs) in rat plasma ([3]; Table 15, method #3): >20 h; half-life at 5 uM [3, 10]: > 20 h
CC(=O)N[C@H]1CSCc2cc3cc(c2)CSC[C@H](NC(=O)[C@H](Cc2ccc(NC(=N)N)cc2)NC(=O)[C@H](Cc2ccc(O)cc2)NC(=O)[C@@H]2CCCN2C(=O)[C@H](Cc2ccccc2)NC(=O)[C@H](CO)NC1=O)C(=O)N[C@@H](CC(C)C)C(=O)N[C@@H](Cc1c[nH]cn1)C(=O)N[C@@H](CCC(N)=O)C(=O)N[C@@H](CC(=O)O)C(=O)N[C@@H](CC(C)C)C(=O)N[C@H](C(N)=O)CSC3 [Ac-(06-34-18) Phe2 Tyr4 4GuanPhe5] (Ac-CSFPY[Phe(4-guanidino)]CLHQDLC-NH2; linker 1-7-13 via TBMB)	–	>10 days	0.6 nM	5.0 h	Observable in rat plasma, for days ([2]; Table 23): >10 days; half-life at 5 uM [6]: 2.9 h; half-life at 5 uM ([3]; rat plasma (95%), Table 2, ex vivo rat plasma, Method #3, read-out: Rat Plasma Stability (t½ in hrs) (converted)): 5 h
CC(=O)N[C@H]1CSCc2cc3cc(c2)CSC[C@H](NC(=O)[C@H](CCCNC(=N)N)NC(=O)[C@H](C)NC(=O)[C@@H]2CCCN2C(=O)[C@H](Cc2c[nH]c4ccccc24)NC(=O)[C@H](CO)NC1=O)C(=O)N[C@@H](CC(C)C)C(=O)N[C@@H](Cc1c[nH]cn1)C(=O)N[C@@H](CCC(N)=O)C(=O)N[C@@H](CC(=O)O)C(=O)N[C@@H](CC(C)C)C(=O)N[C@H](C(N)=O)CSC3 [Ac-(06-34-18) wildtype]	–	–	–	2.3 h	observability window / rat plasma stability profile [2]: about 2 days; t1/2 (hrs) in rat plasma ([3]; Table 15, method #3): 2.3 h; half-life at 5 uM [3, 10]: 2.3 h; Ki (rat plasma Kallikrein; read-out: Ki (nM) (rat kallikrein); Table 1; cited from earlier work): 1.8 nM
CLWPARCLTIELC	59	–	–	–	–
CQWPARCTHTDLC	91	–	–	–	–
CSWPYHCTHQDLC	–	–	–	–	FREQUENCY (human plasma Kallikrein [8]): 1; RANK (human plasma Kallikrein [7]; Table 17, rank according to Kallikrein binding, positions 2-5 of 06-34-03 randomised): 39

More lines, main results first:

BINDING ASSAY SIGNAL (human plasma Kallikrein [7])	Compound	Observable in rat plasma, for days [1]	Ki (rat plasma Kallikrein; [9])	t1/2 (hrs) in rat plasma [4]	also measured
84	CAWPARCTHDDLC	–	–	–	–
83	CSWPARCTHTDLC	–	–	–	–
